Reference: PubChem BioAssay AID1745844 (Carcinogenic Potency Database (CPDB), 2022)
Activity calls are given as the source filed them. How the calls were made is not given here.

Tested on: rodent lifetime carcinogenesis bioassay, tumor incidence TD50
Assay: chronic cancer bioassays in animals – CPDB, compiled studies (AID 1745844)

In the case of `O=NN(CCO)C(=O)NCCCl`, the TD50 (rat, strain Fischer 344, females, by gavage, site: all sites, lesion: mononuclear-cell leukemia, dosed 40 weeks, study length 115 weeks) is reported as 0.76 mg/kg/day, the TD50 (rat, strain Fischer 344, females, by gavage, site: kidney tubule, lesion: several types, types named in the paper, dosed 40 weeks, study length 115 weeks) is reported as 4.38 mg/kg/day and the TD50 (rat, strain Fischer 344, females, by gavage, site: liver, lesion: cholangiocarcinoma, dosed 40 weeks, study length 115 weeks) is reported as 4.38 mg/kg/day. For the same molecule, the TD50 (rat, strain Fischer 344, females, by gavage, site: liver, lesion: hepatocellular carcinoma, dosed 40 weeks, study length 115 weeks) was 0.653 mg/kg/day, the TD50 (rat, strain Fischer 344, females, by gavage, site: liver, lesion: neoplastic nodule, dosed 40 weeks, study length 115 weeks) was 0.564 mg/kg/day and the TD50 (rat, strain Fischer 344, females, by gavage, site: liver, lesion: several types, types named in the paper, dosed 40 weeks, study length 115 weeks) was 0.488 mg/kg/day. The TD50 (rat, strain Fischer 344, females, in drinking water, site: liver, lesion: one or several types, types not named, dosed 30 weeks, study length 104 weeks) was 1.19 mg/kg/day, the TD50 (rat, strain Fischer 344, females, in drinking water, site: uterus, lesion: one or several types, types not named, dosed 30 weeks, study length 104 weeks) was 0.669 mg/kg/day and the TD50 (rat, strain Fischer 344, males, by gavage, site: kidney tubule, lesion: several types, types named in the paper, dosed 35 weeks, study length 120 weeks) was 0.663 mg/kg/day. The TD50 (rat, strain Fischer 344, males, by gavage, site: liver, lesion: cholangiocarcinoma, dosed 35 weeks, study length 120 weeks) was 0.926 mg/kg/day, the TD50 (rat, strain Fischer 344, males, by gavage, site: liver, lesion: hepatocellular carcinoma, dosed 35 weeks, study length 120 weeks) was 0.233 mg/kg/day and the TD50 (rat, strain Fischer 344, males, by gavage, site: liver, lesion: neoplastic nodule, dosed 35 weeks, study length 120 weeks) was 1.19 mg/kg/day. The TD50 (rat, strain Fischer 344, males, by gavage, site: liver, lesion: several types, types named in the paper, dosed 35 weeks, study length 120 weeks) was 0.15 mg/kg/day and the TD50 (rat, strain Fischer 344, males, in drinking water, site: liver, lesion: one or several types, types not named, dosed 30 weeks, study length 104 weeks) was 0.59 mg/kg/day.

In the case of `Nc1nc(N)nc(-c2cc(Cl)ccc2Cl)n1`, the carcinogen call (rat, strain Wistar, males, in feed, site: liver, lesion: one or several types, types not named, dosed 55 weeks, study length 55 weeks) is reported as “negative (inactive)”.

In the case of `CC(O)CN(CC(C)O)CC(C)O` (stereo not given), the carcinogen call (rat, strain Wistar, males, in feed, site: liver, lesion: one or several types, types not named, dosed 102 weeks, study length 102 weeks) is reported as “negative (inactive)”.

For `CCCC(Cl)CCCC(Cl)CCC(Cl)CCC(Cl)CCC(Cl)CCCC(Cl)CCC` (stereo not given), the TD50 (mouse, strain B6C3F1, females, by gavage, site: Harderian gland, lesion: adenoma, NOS, dosed 103 weeks, study length 104 weeks) was 347 mg/kg/day, the TD50 (mouse, strain B6C3F1, females, by gavage, site: liver + thyroid gland, lesion: hepatocellular adenoma + hepatocellular carcinoma + follicular-cell adenoma + follicular-cell carcinoma, dosed 103 weeks, study length 104 weeks) was 86.8 mg/kg/day and the TD50 (mouse, strain B6C3F1, females, by gavage, site: lung, lesion: alveolar/bronchiolar adenoma + alveolar/bronchiolar carcinoma, dosed 103 weeks, study length 104 weeks) was 1.22e+06 mg/kg/day. It also gave a TD50 (mouse, strain B6C3F1, females, by gavage, site: multiple organs, lesion: malignant lymphoma, lymphocytic type, dosed 103 weeks, study length 104 weeks) of 599 mg/kg/day, a TD50 (mouse, strain B6C3F1, females, by gavage, site: thyroid gland, lesion: follicular-cell adenoma + follicular-cell carcinoma, dosed 103 weeks, study length 104 weeks) of 307 mg/kg/day and a TD50 (mouse, strain B6C3F1, females, by gavage, site: thyroid gland, lesion: follicular-cell adenoma, dosed 103 weeks, study length 104 weeks) of 372 mg/kg/day. For the same molecule, the TD50 (mouse, strain B6C3F1, males, by gavage, site: liver + mesenteric lymph node + multiple organs + small intestine + spleen, lesion: malignant lymphoma, NOS + malignant lymphoma, mixed type + malignant lymphoma, lymphocytic type + malignant lymphoma, histiocy, dosed 103 weeks, study length 104 weeks) was 6540 mg/kg/day, the TD50 (mouse, strain B6C3F1, males, by gavage, site: liver, lesion: hepatocellular adenoma + hepatocellular carcinoma, dosed 103 weeks, study length 104 weeks) was 143 mg/kg/day and the TD50 (mouse, strain B6C3F1, males, by gavage, site: liver, lesion: hepatocellular adenoma, dosed 103 weeks, study length 104 weeks) was 157 mg/kg/day. The TD50 (mouse, strain B6C3F1, males, by gavage, site: lung, lesion: alveolar/bronchiolar carcinoma, dosed 103 weeks, study length 104 weeks) was 606 mg/kg/day, the TD50 (mouse, strain B6C3F1, males, by gavage, site: mesenteric lymph node + multiple organs + small intestine + spleen, lesion: malignant lymphoma, mixed type, dosed 103 weeks, study length 104 weeks) was 12100 mg/kg/day and the TD50 (mouse, strain B6C3F1, males, by gavage, site: mesenteric lymph node + multiple organs, lesion: malignant lymphoma, lymphocytic type, dosed 103 weeks, study length 104 weeks) was 22900 mg/kg/day. The TD50 (mouse, strain B6C3F1, males, by gavage, site: multiple organs, lesion: malignant lymphoma, histiocytic type, dosed 103 weeks, study length 104 weeks) was 43200 mg/kg/day, the TD50 (mouse, strain B6C3F1, males, by gavage, site: thyroid gland, lesion: follicular-cell carcinoma, dosed 103 weeks, study length 104 weeks) was 44000 mg/kg/day and the TD50 (rat, strain Fischer 344, females, by gavage, site: adrenal medulla, lesion: pheochromocytoma + pheochromocytoma, malignant, dosed 103 weeks, study length 105 weeks) was 2350 mg/kg/day. For the same molecule, the TD50 (rat, strain Fischer 344, females, by gavage, site: any site (literature study), lesion: several types, types named in the paper, dosed 104 weeks, study length 105 weeks) was 1100 mg/kg/day, the TD50 (rat, strain Fischer 344, females, by gavage, site: liver + thyroid gland, lesion: hepatocellular carcinoma + neoplastic nodule + follicular-cell adenoma + follicular-cell carcinoma, dosed 104 weeks, study length 105 weeks) was 583 mg/kg/day and the TD50 (rat, strain Fischer 344, females, by gavage, site: liver, lesion: hepatocellular adenoma + hepatocellular carcinoma + neoplastic nodule, dosed 103 weeks, study length 105 weeks) was 24800 mg/kg/day. The TD50 (rat, strain Fischer 344, females, by gavage, site: liver, lesion: hepatocellular adenoma + hepatocellular carcinoma + neoplastic nodule, dosed 104 weeks, study length 105 weeks) was 1140 mg/kg/day, the TD50 (rat, strain Fischer 344, females, by gavage, site: liver, lesion: hepatocellular carcinoma + neoplastic nodule, dosed 104 weeks, study length 105 weeks) was 1140 mg/kg/day and the TD50 (rat, strain Fischer 344, females, by gavage, site: liver, lesion: neoplastic nodule, dosed 104 weeks, study length 105 weeks) was 1200 mg/kg/day. It also gave a TD50 (rat, strain Fischer 344, females, by gavage, site: multiple organs, lesion: mononuclear-cell leukemia, dosed 104 weeks, study length 105 weeks) of 345 mg/kg/day, a TD50 (rat, strain Fischer 344, females, by gavage, site: pancreas, lesion: acinar-cell adenoma, dosed 104 weeks, study length 105 weeks) of 839 mg/kg/day and a TD50 (rat, strain Fischer 344, females, by gavage, site: thyroid gland, lesion: follicular-cell adenoma + follicular-cell carcinoma, dosed 104 weeks, study length 105 weeks) of 1160 mg/kg/day. The TD50 (rat, strain Fischer 344, females, by gavage, site: thyroid gland, lesion: follicular-cell adenoma, dosed 104 weeks, study length 105 weeks) was 736 mg/kg/day, the TD50 (rat, strain Fischer 344, females, by gavage, site: thyroid gland, lesion: follicular-cell carcinoma, dosed 104 weeks, study length 105 weeks) was 4060 mg/kg/day and the TD50 (rat, strain Fischer 344, females, by gavage, site: uterus, lesion: endometrial stromal polyp + endometrial stromal sarcoma, dosed 104 weeks, study length 105 weeks) was 394 mg/kg/day. It also gave a TD50 (rat, strain Fischer 344, males, by gavage, site: adrenal gland, lesion: pheochromocytoma + pheochromocytoma, malignant, dosed 104 weeks, study length 105 weeks) of 192 mg/kg/day, a TD50 (rat, strain Fischer 344, males, by gavage, site: any site (literature study), lesion: several types, types named in the paper, dosed 104 weeks, study length 105 weeks) of 75.7 mg/kg/day and a TD50 (rat, strain Fischer 344, males, by gavage, site: kidney + liver, lesion: tubular-cell adenoma + tubular-cell adenocarcinoma + hepatocellular carcinoma + neoplastic nodule, dosed 104 weeks, study length 105 weeks) of 110 mg/kg/day. The TD50 (rat, strain Fischer 344, males, by gavage, site: kidney, lesion: tubular-cell adenoma + tubular-cell adenocarcinoma, dosed 104 weeks, study length 105 weeks) was 196 mg/kg/day, the TD50 (rat, strain Fischer 344, males, by gavage, site: kidney, lesion: tubular-cell adenoma, dosed 104 weeks, study length 105 weeks) was 417 mg/kg/day and the TD50 (rat, strain Fischer 344, males, by gavage, site: liver, lesion: hepatocellular adenoma + hepatocellular carcinoma + neoplastic nodule, dosed 103 weeks, study length 105 weeks) was 14500 mg/kg/day. The TD50 (rat, strain Fischer 344, males, by gavage, site: liver, lesion: hepatocellular adenoma + hepatocellular carcinoma + neoplastic nodule, dosed 104 weeks, study length 105 weeks) was 123 mg/kg/day, the TD50 (rat, strain Fischer 344, males, by gavage, site: liver, lesion: hepatocellular carcinoma + neoplastic nodule, dosed 104 weeks, study length 105 weeks) was 123 mg/kg/day and the TD50 (rat, strain Fischer 344, males, by gavage, site: liver, lesion: hepatocellular carcinoma, dosed 104 weeks, study length 105 weeks) was 551 mg/kg/day. The TD50 (rat, strain Fischer 344, males, by gavage, site: liver, lesion: neoplastic nodule, dosed 103 weeks, study length 105 weeks) was 14500 mg/kg/day (inactive), the TD50 (rat, strain Fischer 344, males, by gavage, site: liver, lesion: neoplastic nodule, dosed 104 weeks, study length 105 weeks) was 173 mg/kg/day and the TD50 (rat, strain Fischer 344, males, by gavage, site: mammary gland, lesion: fibroadenoma, dosed 104 weeks, study length 105 weeks) was 566 mg/kg/day. For the same molecule, the TD50 (rat, strain Fischer 344, males, by gavage, site: multiple organs + spleen, lesion: mononuclear-cell leukemia, dosed 104 weeks, study length 105 weeks) was 406 mg/kg/day, the TD50 (rat, strain Fischer 344, males, by gavage, site: pancreas, lesion: acinar-cell adenoma, dosed 104 weeks, study length 105 weeks) was 150 mg/kg/day and the TD50 (rat, strain Fischer 344, males, by gavage, site: pancreas, lesion: acinar-cell carcinoma + acinar-cell adenoma, dosed 104 weeks, study length 105 weeks) was 144 mg/kg/day. It also gave a TD50 (rat, strain Fischer 344, males, by gavage, site: pancreatic islets, lesion: islet-cell adenoma, dosed 103 weeks, study length 105 weeks) of 17600 mg/kg/day, a TD50 (rat, strain Fischer 344, males, by gavage, site: preputial gland, lesion: adenoma, NOS + carcinoma, NOS, dosed 104 weeks, study length 105 weeks) of 522 mg/kg/day and a TD50 (rat, strain Fischer 344, males, by gavage, site: preputial gland, lesion: adenoma, NOS, dosed 104 weeks, study length 105 weeks) of 568 mg/kg/day. For the same molecule, the TD50 (rat, strain Fischer 344, males, by gavage, site: skin + subcutaneous tissue, lesion: fibroma, dosed 104 weeks, study length 105 weeks) was 332 mg/kg/day and the TD50 (rat, strain Fischer 344, males, by gavage, site: testis, lesion: interstitial-cell tumor, dosed 104 weeks, study length 105 weeks) was 75.2 mg/kg/day.

`CC(=O)NNC(=O)c1ccncc1` was tested, and the TD50 (mouse, strain Swiss albino, females, in drinking water, site: liver, lesion: several types, types named in the paper, dosed 94 weeks, study length 94 weeks) was 55700 mg/kg/day, the TD50 (mouse, strain Swiss albino, females, in drinking water, site: lung, lesion: several types, types named in the paper, dosed 94 weeks, study length 94 weeks) was 319 mg/kg/day and the carcinogen call (mouse, strain Swiss albino, males, in drinking water, site: liver, lesion: hemangioma, dosed 92 weeks, study length 92 weeks) was “negative (inactive)”. For the same molecule, the TD50 (mouse, strain Swiss albino, males, in drinking water, site: lung, lesion: several types, types named in the paper, dosed 92 weeks, study length 92 weeks) was 342 mg/kg/day.

Molecule `CCOc1ccc(NC(N)=O)cc1` has a TD50 (rat, strain Osborne-Mendel, both sexes, in feed, site: liver, lesion: several types, types named in the paper, dosed 104 weeks, study length 104 weeks) of 537 mg/kg/day.

`NC(Cc1c[nH]c2ccccc12)C(=O)O` (stereo not given) was tested, and the carcinogen call (rat, strain Fischer, males, in feed, site: liver, lesion: one or several types, types not named, dosed 98 weeks, study length 98 weeks) was “negative (inactive)” and the carcinogen call (rat, strain Fischer, males, in feed, site: urinary bladder, lesion: one or several types, types not named, dosed 98 weeks, study length 98 weeks) was “negative (inactive)”.
